Reference: patent publication US8455518B2, “Method of treating skin with microRNA modulators” (Avon Products, Inc., priority 2010, dated 2013)

How the values were obtained:
Type in all cases: cell-based
collagen = assay: Collagen protein levels by ELISA in compound-treated human dermal fibroblasts; conditions: 0.0005% compound, 48 hours; for collagen protein levels as measured by ELISA (in words): p<0.05; for Collagen (%): serum-free, collagen protein by ELISA
miR-29a = assay: Inhibition of miR-29a by specific compounds in human dermal fibroblasts, qRT-PCR; conditions: 0.0005% compound, 48 hours; for inhibition of miR-29a relative to vehicle treated cells (in words): p<0.05; for miR-29a (%): serum-free, relative to vehicle treated cells
Protocol: (§1) The expression of miR-29a and miR29b in young versus old skin fibroblasts was examined by qRT-PCR.
(§2) Human dermal fibroblasts were grown in the absence of serum overnight, followed by treatment with 0.0005% of test compounds in the absence of serum for 48 hours. Cells were analyzed for expression levels of miR-29a and miR-29b by qRT-PCR as described in Examples 1 and 2. […] All values are statistically significant at p<0.05.

miR-29b = assay: Inhibition of miR-29b by specific compounds in human dermal fibroblasts, qRT-PCR; conditions: 0.0005% compound, 48 hours; for inhibition of miR-29b relative to vehicle treated cells (in words): p<0.05; for miR-29b (%): serum-free, relative to vehicle treated cells
Protocol: as §1, §2

| SMILES | collagen protein levels as measured by ELISA (in words) (collagen) | Collagen (%) (collagen) | inhibition of miR-29a relative to vehicle treated cells (in words) (miR-29a) | miR-29a (%) (miR-29a) | inhibition of miR-29b relative to vehicle treated cells (in words) (miR-29b) | miR-29b (%) (miR-29b) |
| --- | --- | --- | --- | --- | --- | --- |
| CC(C)CN(Cc1ccc(OS(C)(=O)=O)cc1)S(=O)(=O)c1ccccc1 [Compound 1, N-(2-methylpropyl)-N-[[4-[(methylsulfonyl)oxy]phenyl]methyl]-benzenesulfonamide] | increased collagen protein levels | 102 | significant inhibition | −61.57 | significant inhibition | −85.00 |
| CCOCCCNC(=O)c1cc(NC(=O)/C=C/c2ccccc2)ccc1N1CCC(Cc2ccccc2)CC1 [Compound 2, 2-(4-benzylpiperidin-1-yl)-N-(3-ethoxypropyl)-5-[(2E)-3-phenylprop-2-enamido]-benzamide] | increased collagen protein levels | 30 | significant inhibition | −33.67 | significant inhibition | −61.53 |
